Values joined by “and” are separate entries in the source; they are usually repeats but may differ in a detail not shown here. Identical values can stand only once. Inconclusive results and toxic doses are left out. Peptide text beside a SMILES is read from it. * marks the point of attachment. Cbz = O=C(OCc1ccccc1)*; CH2Cl = ClC*
Test system: L1210 leukemia ip in BDF1 mice, survival T/C
Test: NCI In Vivo Anticancer Drug Screen. Data for tumor model L1210 Leukemia (intraperitoneal) in B6D2F1 (BDF1) mice
Conditions: endpoint: mean survival time, higher = longer survival
How it was run: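 Antitumor effect is assessed in tumor-bearing animals. Survival in the compound arm is compared with a vehicle-dosed control arm and expressed as their quotient.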

[1] = dose: 100.0 mg/kg/injection, schedule: Q01DX001 (ip), vehicle: other
[2] = dose: 200.0 mg/kg/injection, schedule: Q01DX001 (ip), vehicle: other
[3] = dose: 100.0 mg/kg/injection, schedule: Q04DX003 (ip), vehicle: carboxymethylcellulose (CMC)
[4] = dose: 200.0 mg/kg/injection, schedule: Q04DX003 (ip), vehicle: carboxymethylcellulose (CMC)
[5] = dose: 400.0 mg/kg/injection, schedule: Q04DX003 (ip), vehicle: carboxymethylcellulose (CMC)
[6] = dose: 125.0 mg/kg/injection, schedule: Q01DX Z (ip), vehicle: methylcellulose (MC)
[7] = dose: 100.0 mg/kg/injection, schedule: Q01DX001 (ip), vehicle: saline
[8] = dose: 200.0 mg/kg/injection, schedule: Q01DX001 (ip), vehicle: saline
[9] = dose: 100.0 mg/kg/injection, schedule: Q04DX003 (ip), vehicle: saline with Tween-80
[10] = dose: 200.0 mg/kg/injection, schedule: Q04DX003 (ip), vehicle: saline with Tween-80
[11] = dose: 400.0 mg/kg/injection, schedule: Q04DX003 (ip), vehicle: saline with Tween-80

Compound: O=C(OCCCCOC(=O)c1cccc([N+](=O)[O-])c1)c1cccc([N+](=O)[O-])c1
- T/C (dose: 3.12 mg/kg/injection, schedule: Q01DX009 (ip), vehicle: saline with Tween-80): 95 % of control
- T/C (dose: 6.25 mg/kg/injection, schedule: Q01DX009 (ip), vehicle: saline with Tween-80): 100 % of control
- T/C (dose: 12.5 mg/kg/injection, schedule: Q01DX009 (ip), vehicle: saline with Tween-80): 97 % of control
- T/C [1]: 102 % of control
- T/C [2]: 95 % of control
- T/C (dose: 400.0 mg/kg/injection, schedule: Q01DX001 (ip), vehicle: other): 93 % of control

Compound: O=C1C2C3CCC(O3)C2C(=O)N1CCOS(=O)(=O)c1ccc(Cl)cc1 (stereo not drawn)
- T/C (dose: 75.0 mg/kg/injection, schedule: Q01DX009 (ip), vehicle: carboxymethylcellulose (CMC)): 93 % of control
- T/C [3]: 100 % of control
- T/C (dose: 150.0 mg/kg/injection, schedule: Q01DX009 (ip), vehicle: carboxymethylcellulose (CMC)): 94 % of control
- T/C [4]: 102 % of control
- T/C (dose: 300.0 mg/kg/injection, schedule: Q01DX009 (ip), vehicle: carboxymethylcellulose (CMC)): 91 % of control
- T/C [5]: 96 % of control

Compound: CC(C)CC(NC(=O)CNC(=O)OCc1ccccc1)C(=O)NC(Cc1ccccc1)C(=O)CCl (stereo not drawn) (Cbz-Gly-Leu-Phe-CH2Cl; configuration not given here)
- T/C (dose: 25.0 mg/kg/injection, schedule: Q04DX003 (ip), vehicle: Klucel (hydroxypropylcellulose) (HPC)): 102 % of control
- T/C (dose: 50.0 mg/kg/injection, schedule: Q04DX003 (ip), vehicle: Klucel (hydroxypropylcellulose) (HPC)): 106 % of control
- T/C (dose: 75.0 mg/kg/injection, schedule: Q04DX003 (ip), vehicle: Klucel (hydroxypropylcellulose) (HPC)): 94 % of control and 90 % of control
- T/C (dose: 100.0 mg/kg/injection, schedule: Q01DX001 (ip), vehicle: Klucel (hydroxypropylcellulose) (HPC)): 92 % of control
- T/C (dose: 200.0 mg/kg/injection, schedule: Q01DX001 (ip), vehicle: Klucel (hydroxypropylcellulose) (HPC)): 92 % of control

Compound: COc1ccc(-c2cc(=O)c3c(O)cc(O)c(-c4cc(-c5cc(=O)c6c(O)cc(OC)cc6o5)ccc4OC)c3o2)cc1
- T/C (dose: 55.0 mg/kg/injection, schedule: Q01DX Z (ip), vehicle: methylcellulose (MC)): 98 % of control
- T/C (dose: 83.0 mg/kg/injection, schedule: Q01DX Z (ip), vehicle: methylcellulose (MC)): 92 % of control
- T/C [6]: 93 % of control

Compound: OCC1OC(n2cnc3c(SSc4ncnc5c4ncn5C4OC(CO)C(O)C4O)ncnc32)C(O)C1O (stereo not drawn)
- T/C [7]: 95 % of control
- T/C [8]: 106 % of control
- T/C (dose: 400.0 mg/kg/injection, schedule: Q01DX001 (ip), vehicle: saline): 121 % of control

Compound: COc1ccc2c3c1OC1C(C)=CCC4C(C2)N(C)CCC314 (stereo not drawn)
- T/C (dose: 75.0 mg/kg/injection, schedule: Q01DX001 (ip), vehicle: saline): 101 % of control

Compound: Cc1nc2[nH]c(=S)[nH]c(=O)c2nc1C
- T/C (dose: 16.0 mg/kg/injection, schedule: Q01DX Z (ip), vehicle: methylcellulose (MC)): 95 % of control
- T/C (dose: 31.0 mg/kg/injection, schedule: Q01DX Z (ip), vehicle: methylcellulose (MC)): 119 % of control
- T/C (dose: 62.0 mg/kg/injection, schedule: Q01DX Z (ip), vehicle: methylcellulose (MC)): 89 % of control
- T/C [6]: 95 % of control and 101 % of control
- T/C (dose: 250.0 mg/kg/injection, schedule: Q01DX Z (ip), vehicle: methylcellulose (MC)): 112 % of control
- T/C (dose: 500.0 mg/kg/injection, schedule: Q01DX Z (ip), vehicle: methylcellulose (MC)): 89 % of control

Compound: [CH3][Sb]1([Cl])[CH2]CC[CH2]1
- T/C [9]: 103 % of control
- T/C (dose: 100.0 mg/kg/injection, schedule: Q04DX003 (ip), vehicle: saline): 101 % of control
- T/C [10]: 107 % of control
- T/C (dose: 200.0 mg/kg/injection, schedule: Q04DX003 (ip), vehicle: saline): 108 % of control

Compound: CCOC(=O)C1C(O)=C(C(=O)Nc2ccccc2)C(=O)C(C(=O)O)C1C1CC=CCC1 (stereo not drawn)
- T/C [1]: 97 % of control
- T/C [9]: 94 % of control
- T/C [2]: 100 % of control
- T/C [10]: 103 % of control
- T/C [11]: 100 % of control

Compound: C/C(=N/OC(=O)N(C)C)c1cc(Cl)ccc1Cl
- T/C [7]: 100 % of control
- T/C [8]: 100 % of control

Compound: CC(C)N(C(=O)Nc1cc(C(F)(F)F)ccc1Cl)C1CCCCC1
- T/C (dose: 100.0 mg/kg/injection, schedule: Q01DX001 (ip), vehicle: carboxymethylcellulose (CMC)): 95 % of control
- T/C (dose: 100.0 mg/kg/injection, schedule: Q01DX009 (ip), vehicle: carboxymethylcellulose (CMC)): 92 % of control and 88 % of control
- T/C (dose: 100.0 mg/kg/injection, schedule: Q04DX002 (ip), vehicle: carboxymethylcellulose (CMC)): 97 % of control
- T/C [3]: 96 % of control
- T/C (dose: 200.0 mg/kg/injection, schedule: Q01DX001 (ip), vehicle: carboxymethylcellulose (CMC)): 90 % of control
- T/C (dose: 200.0 mg/kg/injection, schedule: Q01DX009 (ip), vehicle: carboxymethylcellulose (CMC)): 93 % of control and 100 % of control
- T/C (dose: 200.0 mg/kg/injection, schedule: Q04DX002 (ip), vehicle: carboxymethylcellulose (CMC)): 98 % of control and 108 % of control
- T/C [4]: 96 % of control
- T/C (dose: 400.0 mg/kg/injection, schedule: Q01DX001 (ip), vehicle: carboxymethylcellulose (CMC)): 93 % of control
- T/C (dose: 400.0 mg/kg/injection, schedule: Q01DX009 (ip), vehicle: carboxymethylcellulose (CMC)): 95 % of control
- T/C (dose: 400.0 mg/kg/injection, schedule: Q04DX002 (ip), vehicle: carboxymethylcellulose (CMC)): 87 % of control and 90 % of control
- T/C [5]: 91 % of control

Compound: C[N+](C)(Cc1ccccc1)/N=C(\[O-])Cc1ccccc1
- T/C [7]: 95 % of control
- T/C [8]: 104 % of control

Compound: CCCCOC(=O)c1cocc1C(=O)OCCCC
- T/C (dose: 100.0 mg/kg/injection, schedule: Q01DX009 (ip), vehicle: saline with Tween-80): 99 % of control
- T/C [9]: 98 % of control
- T/C (dose: 200.0 mg/kg/injection, schedule: Q01DX009 (ip), vehicle: saline with Tween-80): 92 % of control
- T/C [10]: 104 % of control
- T/C (dose: 400.0 mg/kg/injection, schedule: Q01DX009 (ip), vehicle: saline with Tween-80): 90 % of control
- T/C [11]: 93 % of control

Compound: COCCOCCN1CCN(CCCN2c3ccccc3Sc3ccc(C(F)(F)F)cc32)CC1
- T/C (dose: 4.37 mg/kg/injection, schedule: Q04DX003 (ip), vehicle: saline): 115 % of control
- T/C (dose: 6.25 mg/kg/injection, schedule: Q04DX003 (ip), vehicle: saline): 107 % of control
- T/C (dose: 8.75 mg/kg/injection, schedule: Q04DX003 (ip), vehicle: saline): 121 % of control
- T/C (dose: 12.5 mg/kg/injection, schedule: Q04DX003 (ip), vehicle: saline): 110 % of control
- T/C (dose: 17.5 mg/kg/injection, schedule: Q04DX003 (ip), vehicle: saline): 86 % of control
- T/C (dose: 50.0 mg/kg/injection, schedule: Q04DX003 (ip), vehicle: saline): 151 % of control

Compound: COc1cc(O)c2ncccc2c1O
- T/C (dose: 5.0 mg/kg/injection, schedule: Q01DX001 (ip), vehicle: saline): 95 % of control
- T/C (dose: 10.0 mg/kg/injection, schedule: Q01DX001 (ip), vehicle: saline): 101 % of control
- T/C (dose: 20.0 mg/kg/injection, schedule: Q01DX001 (ip), vehicle: saline): 106 % of control
- T/C (dose: 35.0 mg/kg/injection, schedule: Q01DX001 (ip), vehicle: saline): 86 % of control and 91 % of control
- T/C (dose: 40.0 mg/kg/injection, schedule: Q01DX001 (ip), vehicle: saline): 103 % of control
- T/C (dose: 50.0 mg/kg/injection, schedule: Q01DX001 (ip), vehicle: saline): 93 % of control and 89 % of control

Compound: CN1CCC(C=C2c3ccccc3Sc3ccccc32)C1 (stereo not drawn)
- T/C (dose: 8.0 mg/kg/injection, schedule: Q01DX015 (ip), vehicle: carboxymethylcellulose (CMC)): 110 % of control
- T/C (dose: 16.0 mg/kg/injection, schedule: Q01DX015 (ip), vehicle: carboxymethylcellulose (CMC)): 102 % of control
- T/C (dose: 32.0 mg/kg/injection, schedule: Q01DX015 (ip), vehicle: carboxymethylcellulose (CMC)): 96 % of control
- T/C (dose: 64.0 mg/kg/injection, schedule: Q01DX015 (ip), vehicle: carboxymethylcellulose (CMC)): 98 % of control

Compound: CC(=O)OCC1C2c3ccccc3C(c3ccccc32)C1CBr (stereo not drawn)
- T/C (dose: 100.0 mg/kg/injection, schedule: Q01DX009 (ip), vehicle: Klucel (hydroxypropylcellulose) (HPC)): 91 % of control
- T/C (dose: 100.0 mg/kg/injection, schedule: Q04DX003 (ip), vehicle: Klucel (hydroxypropylcellulose) (HPC)): 93 % of control
- T/C (dose: 200.0 mg/kg/injection, schedule: Q01DX009 (ip), vehicle: Klucel (hydroxypropylcellulose) (HPC)): 94 % of control
- T/C (dose: 200.0 mg/kg/injection, schedule: Q04DX003 (ip), vehicle: Klucel (hydroxypropylcellulose) (HPC)): 94 % of control
- T/C (dose: 400.0 mg/kg/injection, schedule: Q01DX009 (ip), vehicle: Klucel (hydroxypropylcellulose) (HPC)): 88 % of control
- T/C (dose: 400.0 mg/kg/injection, schedule: Q04DX003 (ip), vehicle: Klucel (hydroxypropylcellulose) (HPC)): 98 % of control

Source: PubChem BioAssay AID248 (DTP/NCI, 2004)
